Measured values from patent publication US9204653B2, “5-fluoro pyrimidine derivatives” (DOW AGROSCIENCES LLC, priority 2008, dated 2015).
Read-outs that look alike come from different tables or passages of the source.

What was measured:
[1] = tested on: Mycosphaerella graminicola; Anamorph: Septoria tritici; Bayer Code SEPTTR; test: Leaf blotch of wheat, foliar fungicide treatment, one day protectant (1DP) or three day curative (3DC); assay type: in vivo, Septoria tritici on wheat plants (variety Yuma); details: Zymoseptoria tritici
[2] = tested on: Venturia inaequalis; Bayer Code VENTIN; test: Apple scab; assay type: in vivo; details: 24 h, % disease control rating, one day protectant; for pest or weed control at 25 ppm: read-out: VENTIN 1 DP 25 ppm; for pest or weed control at 75 ppm: read-out: VENTIN 1 DP 75 ppm
[3] = 24 h, one day protectant (1DP), 25 ppm, percent disease control rating, read-out: SETTTR 1DP 25 ppm
[4] = 24 h, one day protectant (1DP), percent disease control rating, read-out: SEPTTR 1DP 100 ppm
[5] = 72 h, three day curative (3DC), 25 ppm, percent disease control rating, read-out: SEPTTR 3DC 25 ppm
[6] = 72 h, three day curative (3DC), percent disease control rating, read-out: SEPTTR 3DC 100 ppm
[7] = 24 h, one day protectant (1DP), 25 ppm (first 1DP column), percent control rating, read-out: SETTTR 1DP 25 ppm
[8] = 24 h, one day protectant (1DP), 25 ppm as printed (second 1DP column), percent control rating, read-out: SETTTR 1DP 25 ppm
[9] = 72 h, three day curative (3DC), 25 ppm, percent control rating, read-out: SEPTTR 3DC 25 ppm
[10] = 72 h, three day curative (3DC), percent control rating, read-out: SEPTTR 3DC 100 ppm
[11] = 24 h, one day protectant (1DP), 25 ppm (first 1DP column), percent disease control rating, read-out: SETTTR 1DP 25 ppm
[12] = 24 h, one day protectant (1DP), 25 ppm as printed (second 1DP column), percent disease control rating, read-out: SETTTR 1DP 25 ppm

Structure (SMILES)	pest or weed control at 25 ppm [1, 3] [%]	pest or weed control at 100 ppm [1, 4] [%]	pest or weed control at 25 ppm [1, 5] [%]	pest or weed control at 100 ppm [1, 6] [%]	pest or weed control at 25 ppm [2] [%]	pest or weed control at 75 ppm [2] [%]	pest or weed control at 25 ppm [1, 7] [%]	pest or weed control at 25 ppm [1, 8] [%]	pest or weed control at 25 ppm [1, 9] [%]	pest or weed control at 100 ppm [1, 10] [%]	pest or weed control at 25 ppm [1, 11] [%]	pest or weed control at 25 ppm [1, 12] [%]
CC(Oc1ncc(F)c(N)n1)c1ccc(F)cc1 (centres unmarked) [Compound 3, 5-Fluoro-2-[1-(4-fluorophenyl)ethoxy]pyrimidin-4-ylamine]	76 to 100	76 to 100	76 to 100	76 to 100	0 to 25	76 to 100						
Nc1nc(OCc2cccs2)ncc1F [Compound 5, 5-Fluoro-2-(thiophen-2-ylmethoxy)-pyrimidin-4-ylamine]	76 to 100	76 to 100	76 to 100	76 to 100	76 to 100	76 to 100						
CN(C)/C=N/c1nc(OCc2ccc(F)cc2)ncc1F [Compound 20, N-[5-Fluoro-2-(4-fluorobenzyloxy)pyrimidin-4-yl]-N,N dimethyl-formamidine]	76 to 100	76 to 100	76 to 100	76 to 100	51 to 75	76 to 100						
COc1cccc(COc2ncc(F)c(N)n2)c1 [Compound 35]	76 to 100	76 to 100	76 to 100	76 to 100	76 to 100	76 to 100						
Nc1nc(OCc2ccccc2)ncc1F [Compound 46]	76 to 100	76 to 100	76 to 100	76 to 100	76 to 100	76 to 100						
NN(Cc1ccccc1)c1nc(O)ncc1F [Compound 1093]							0 to 25	0 to 25	0 to 25	0 to 25		
Oc1ncc(F)c(N(O)Cc2ccccc2)n1 [Compound 1094]							0 to 25	0 to 25	26 to 50	26 to 50		
Oc1ncc(F)c(NOCc2ccccc2)n1 [Compound 1095]							0 to 25	0 to 25	0 to 25	0 to 25		
CON(C)c1nc(O)ncc1F [Compound 1096]							0 to 25	0 to 25	0 to 25	76 to 100		
COc1ncc(F)c(/N=N/c2c(Cl)cccc2Cl)n1 [Compound 1097]							0 to 25	0 to 25	0 to 25	26 to 50		
Oc1ncc(F)c(NNc2ccccc2Cl)n1 [Compound 1098]							0 to 25	0 to 25	0 to 25	0 to 25		
C=CCOc1ncc(F)c(/N=N/c2ccccc2F)n1 [Compound 1099]							0 to 25	0 to 25	0 to 25	0 to 25		
C=CCOc1ncc(F)c(/N=N/c2ccc(Br)cc2)n1 [Compound 1100]							0 to 25	0 to 25	26 to 50	26 to 50		
CS(=O)(=O)Nc1nc(O)ncc1F [Compound 1101]							0 to 25	0 to 25	0 to 25	0 to 25		
COc1ccccc1S(=O)(=O)Nc1nc(O)ncc1F [Compound 1102]							0 to 25	0 to 25	26 to 50	26 to 50		
O=S(=O)(Nc1nc(O)ncc1F)c1ccccc1Cl [Compound 1103]							0 to 25	0 to 25	0 to 25	0 to 25		
O=S(=O)(Nc1nc(O)ncc1F)C1CC1 [Compound 1104]							0 to 25	0 to 25	0 to 25	0 to 25		
CCS(=O)(=O)Nc1nc(O)ncc1F [Compound 1105]							0 to 25	0 to 25	0 to 25	0 to 25		
COc1nn(C)c(C(F)(F)F)c1S(=O)(=O)Nc1nc(O)ncc1F [Compound 1106]							0 to 25	0 to 25	0 to 25	0 to 25		
O=S(=O)(Nc1nc(OCc2cccs2)ncc1F)c1ccccc1 [Compound 1107]							0 to 25	0 to 25	0 to 25	0 to 25		

Structure (SMILES)	pest or weed control at 25 ppm [1, 3] [%]	pest or weed control at 100 ppm [1, 4] [%]	pest or weed control at 25 ppm [1, 5] [%]	pest or weed control at 100 ppm [1, 6] [%]	pest or weed control at 25 ppm [2] [%]	pest or weed control at 75 ppm [2] [%]	pest or weed control at 25 ppm [1, 7] [%]	pest or weed control at 25 ppm [1, 8] [%]	pest or weed control at 25 ppm [1, 9] [%]	pest or weed control at 100 ppm [1, 10] [%]	pest or weed control at 25 ppm [1, 11] [%]	pest or weed control at 25 ppm [1, 12] [%]
C/C(=N\Nc1nc(O)ncc1F)c1ccc(Br)cc1 [Compound 1108]							0 to 25	0 to 25	0 to 25	0 to 25		
C=CCOc1ncc(F)c(/N=N/c2cc(C)ccc2C)n1 [Compound 1109]							0 to 25	0 to 25	0 to 25	0 to 25		
COc1ncc(F)c(/N=N/c2ccccc2Cl)n1 [Compound 1110]							0 to 25	0 to 25	0 to 25	0 to 25		
Oc1ncc(F)c(N/N=C/c2ccco2)n1 [Compound 1112]							0 to 25	0 to 25	0 to 25	26 to 50		
CC(C)(C)C(=O)OCOc1ncc(F)c(NC=O)n1 [Compound 1113]							76 to 100	76 to 100	76 to 100	76 to 100		
C/C(=N\Oc1ncc(F)c(N)n1)C(F)(F)F [Compound 1114]							0 to 25	0 to 25	26 to 50	76 to 100		
CCOCNc1nc(O)ncc1F [Compound 1115]							26 to 50	76 to 100	26 to 50	76 to 100		
Oc1ncc(F)c(N/N=C/c2ccccc2Cl)n1 [Compound 1118]							0 to 25	0 to 25	0 to 25	0 to 25		
CC(C)(C)C(=O)OCOc1ncc(F)c(N)n1 [Compound 1119]							76 to 100	76 to 100	76 to 100	76 to 100		
COc1ncc(F)c(NNC(=O)Cc2ccccc2)n1 [Compound 1120]							0 to 25	0 to 25	0 to 25	0 to 25		
COc1ncc(F)c(NNC(=O)c2ccc(Cl)cc2)n1 [Compound 1121]							0 to 25	0 to 25	0 to 25	0 to 25		
C=CCOc1ncc(F)c(NNC(=O)C=C(C)C)n1 [Compound 1123]							0 to 25	0 to 25	0 to 25	0 to 25		
C=CCOc1ncc(F)c(NNC(=O)c2ccncc2)n1 [Compound 1124]							0 to 25	0 to 25	0 to 25	0 to 25		
CC(=O)OCOc1ncc(F)c(NC=O)n1 [Compound 1125]							76 to 100	76 to 100	76 to 100	76 to 100		
O=CNc1nc(OCOC(=O)C2CCCC2)ncc1F [Compound 1126]							76 to 100	76 to 100	76 to 100	76 to 100		
CSCOc1ncc(F)c(/N=C/N(C)C)n1 [Compound 1127]							76 to 100	76 to 100	76 to 100	76 to 100		
COc1ncc(F)c(N(NC(=O)c2ccc(Cl)cc2)C(=O)c2ccc(Cl)cc2)n1 [Compound 1128]							0 to 25	0 to 25	0 to 25	0 to 25		
Cc1ccc(COc2ncc(F)c(NC#N)n2)cc1 [Compound 1130]			26 to 50	0 to 25							0 to 25	0 to 25
CCN(/C=N/c1nc(O)ncc1F)CC [Compound 1131]			76 to 100	76 to 100							76 to 100	76 to 100
O=S(=O)(Cc1ccccc1)Nc1nc(O)ncc1F [Compound 1132]			76 to 100	76 to 100							51 to 75	51 to 75
